Here are results for 15 compounds from patent US6191130A, “Cyclohexane derivatives difunctionalised in 1,4 as ligands of 5T H1A receptors” (Pierre Fabre Medicament, priority 1997, dated 2001).

In experiment [1] the target is T1, 5-HT1A receptor (Rattus norvegicus, UniProt P19327).
T1 sequence (P19327 1-422): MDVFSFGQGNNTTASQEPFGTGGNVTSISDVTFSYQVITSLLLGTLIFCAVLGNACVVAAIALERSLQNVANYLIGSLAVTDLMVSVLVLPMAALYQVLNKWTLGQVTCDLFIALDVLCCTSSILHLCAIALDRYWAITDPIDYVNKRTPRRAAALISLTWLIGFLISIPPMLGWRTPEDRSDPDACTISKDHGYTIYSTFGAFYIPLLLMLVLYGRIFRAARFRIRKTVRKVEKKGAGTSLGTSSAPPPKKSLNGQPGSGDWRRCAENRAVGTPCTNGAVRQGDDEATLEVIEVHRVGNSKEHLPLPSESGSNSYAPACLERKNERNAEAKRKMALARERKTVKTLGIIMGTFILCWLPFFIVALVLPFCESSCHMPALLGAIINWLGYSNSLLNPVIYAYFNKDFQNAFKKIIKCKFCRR
As to the kind of experiment: 5-HT syndrome (serotoninergic syndrome) in the male rat. The class given is in vivo, male rat (Sprague-Dawley). Also noted: carried out with the male rat (Sprague-Dawley); from tissue; host or cells: whole living rat (Sprague-Dawley). As to conditions: po. On the procedure:
The central activity of the compounds of the invention was evaluated by their ability to provoke the 5-HT syndrome, which is characterized by:
an alternating bending and stretching of the forepaws (reciprocal fore-paw treading: FPT)
the retraction of the lower lip (lower lip retraction: LLR)
a position or the ventral surface of the animal is in contact with the ground and the hind paws extended (flat body posture: FBP).
The experiments on the evaluation of the 5-HT syndrome are carried out with the male rat (Sprague-Dawley) according to the technique described by F. C. Colpaert et al. (Drug. Dev. Res., 26, 21-48, 1992) and M. S. Kleven et al. (J.P.E.T., 282, 747-759, 1997).

Experiment [2] has as its target T1, 5-HT1A receptor. The experiment can be described thus: Binding to the 5-HT1A receptor (displacement of [3H]8-OH-DPAT, rat cortex). Also noted: Brains from male Sprague-Dawley 180-200 g rats; tissue Iffa Credo, France (animals); host or cells: rat brain cortex; species or system male Sprague-Dawley rat. As to conditions: read-out: pKi 5-HT1A (converted). Here is the method: (§1) Binding to the 5-HT1A, D2 dopaminergic and α1-adrenergic receptors:
(§2) Brains from male Sprague-Dawley 180-200 g rats [Ico: OFA SD (I.O.P.S. Caw); Iffa Credo, France], maintained at -70° C., were used in all the studies.
(§3) The affinity of the products for the various receptors was determined by displacement of radioactive ligands under the conditions summarized in Table 1.
(§4) The reaction is halted by rapid filtration, under vacuum, through Whatman GF/B filters and the tubes are rinsed with 2×5 ml of Tris-HCl 50 mM, pH 7.4, buffer at 25° C. The radioactivity collected on the filter is analyzed by liquid scintillation after addition of 4 ml of liquid scintillant (Emulsifier Safe, Packard). All the experiments are carried out in triplicate.
(§5) The inhibition constants (Ki) of the products are estimated from the displacement experimentations by using the EBDA (equilibrium binding data analysis) Radlig Version 4 non linear regression program (Biosoft, Cambridge, UK; McPherson, 1985).
(§6) The pKi (-log Ki) values are given in the form of the mean±SEM of at least 3 experimentations (Table 2).
10 A Assie and Koek, Eur. J.
On the technique in general: Loss of bound radioactivity is the signal in a displacement assay; it reports binding, not function.

Experiment [3] has as its target α1-adrenergic receptor. As to the kind of experiment: Binding to the α1-adrenergic receptor (displacement of [3H]prazosin, rat cortex). More on the design: species or system male Sprague-Dawley rat. As to conditions: mean of at least 3 experimentations. On the procedure:
as §1, §2, §3, §4, §6

Experiment [4] is described as follows: Antidepressant activity: Forced swimming test. The experiment is classed as in vivo. As to conditions: percentage of animals with significant decrease (p<0.05) in immobility time vs control; po.
The target of experiment [5] is T2, D2 dopaminergic receptor (Rattus norvegicus, UniProt P61169).
T2 construct: Brains from male Sprague-Dawley 180-200 g rats; tissue Iffa Credo, France (animals); host or cells: rat brain striatum
T2 sequence (P61169 whole entry): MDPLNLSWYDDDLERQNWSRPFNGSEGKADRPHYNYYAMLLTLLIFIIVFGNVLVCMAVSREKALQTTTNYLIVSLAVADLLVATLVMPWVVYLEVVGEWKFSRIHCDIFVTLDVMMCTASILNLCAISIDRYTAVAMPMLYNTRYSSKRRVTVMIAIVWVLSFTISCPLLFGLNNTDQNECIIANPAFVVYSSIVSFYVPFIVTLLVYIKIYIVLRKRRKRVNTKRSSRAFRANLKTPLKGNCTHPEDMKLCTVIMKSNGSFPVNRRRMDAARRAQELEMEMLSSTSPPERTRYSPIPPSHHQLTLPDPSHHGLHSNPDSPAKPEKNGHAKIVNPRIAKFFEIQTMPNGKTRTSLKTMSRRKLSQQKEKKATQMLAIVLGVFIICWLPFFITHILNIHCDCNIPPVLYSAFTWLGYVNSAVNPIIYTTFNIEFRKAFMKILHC
The experiment can be described thus: Binding to the D2 dopaminergic receptor (displacement of [3H]YM-09151-2, rat striatum). As to conditions: read-out: pKi D2 (converted). More on the design: species or system male Sprague-Dawley rat. Here is the method:
as §1, §2, §3, §4, §5, §6

Setting [6] is: FBP, read-out: ED50 FBP (flat body posture).
The mark [7] stands for this setting: FPT, read-out: ED50 FPT (reciprocal fore-paw treading).
The mark [8] stands for this setting: LLR, read-out: ED50 LLR (lower lip retraction).

Where two headings read alike, the source gives them in different places.

What is called ED50 is the midpoint of the dose-response relation. With `Cn1ncc(O[C@H]2CC[C@H](NCC3COc4ccccc4O3)CC2)nc1=O` (relative stereo) [Compound 16, Trans-5-[4-[(2,3-Dihydrobenzo[1,4]Dioxin-2-Ylmethyl)Amino]Cyclohexyloxy]-2-Methyl-2H-[1,2,4]Triazin-3-One], the ED50 in experiment [1] (setting [6]) is 0.31 mg/kg; in experiment [1] (setting [7]), more than 2.5 mg/kg; in experiment [1] (setting [8]), 0.08 mg/kg. Moreover, in experiment [2], the Ki is 0.166 nM.
Turning to `O=C1CC2(CCCC2)CC(=O)N1CCCCN1CCN(c2ncccn2)CC1` [Buspirone, reference compound], in experiment [3], the “pKi α1” value is 6.19. Besides, the ED50 is more than 160 mg/kg in experiment [4], more than 40 mg/kg in experiment [1] (setting [7]) and 2.5 mg/kg in experiment [1] (setting [8]).
Consider `Cn1c(=O)cnn([C@H]2CC[C@H](N3CCN(c4ncccn4)CC3)CC2)c1=O` [Compound 4, Trans-4-Methyl-2-[4-(4-Pyrimidin-2-Yl-Piperazin-1-Yl)Cyclohexyl]-2H-[1,2,4]Triazine-3,5-Dione], for which, in experiment [3], the “pKi α1” value is less than 5.0. Besides, the figures for the Ki in experiment [5] and in experiment [2] were more than 10 µM and 3.72 nM, respectively. Besides, the ED50 is 1.25 mg/kg in experiment [4], 1.25 mg/kg in experiment [1] (setting [6]), 1.25 mg/kg in experiment [1] (setting [7]) and 0.31 mg/kg in experiment [1] (setting [8]).
With `Cc1cc(C)nc(N2CCN([C@H]3CC[C@H](n4ncc(=O)n(C)c4=O)CC3)CC2)n1` [Compound 5, trans-4-Methyl-2-[4-[4-(4,6-dimethylpyrimidin-2-yl)piperizin-1-yl]cyclohexyl]-2H-[1,2,4]triazine-3,5-dione], the “pKi α1” value in experiment [3] was found to be 5.89. For the same compound, the values for the Ki in experiment [5] and in experiment [2] were more than 10 µM and 0.603 nM, respectively. The ED50 is 0.31 mg/kg in experiment [4], 0.08 mg/kg in experiment [1] (setting [6]), 0.08 mg/kg in experiment [1] (setting [7]) and less than 0.04 mg/kg in experiment [1] (setting [8]).
On to `Cc1ccnc(N2CCN([C@H]3CC[C@H](n4ncc(=O)n(C)c4=O)CC3)CC2)n1` [Compound 6, Trans-4-Methyl-2-[4-[4-(4-Methylpyrimidin-2-Yl)Piperazin-1-Yl]Cyclohexyl]-2H-[1,2,4]triazine-3,5-dione], for which the “pKi α1” value in experiment [3] is given as 6.10. The values for the Ki in experiment [5] and in experiment [2] were more than 10 µM and 0.813 nM, respectively. In addition, the ED50 in experiment [1] (setting [6]), in experiment [1] (setting [7]) and in experiment [1] (setting [8]) was 0.08 mg/kg throughout.
For the compound `Cn1ncc(O[C@H]2CC[C@H](N3CCN(c4ncccn4)CC3)CC2)nc1=O` [Compound 9, trans-2-Methyl-5-[4-(4-pyrimidin-2-yl-piperizin-1-yl)cyclohexyloxy]-2H-[1,2,4]triazin-3-one], the “pKi α1” value in experiment [3] is recorded as less than 5.0. Also, the Ki in experiment [5] is more than 10 µM; in experiment [2], 0.708 nM. The ED50 in experiment [4] was 0.31 mg/kg; in experiment [1] (setting [6]), 0.08 mg/kg; in experiment [1] (setting [7]), 0.31 mg/kg; in experiment [1] (setting [8]) it was 0.08 mg/kg.
`Cc1ccnc(N2CCN([C@H]3CC[C@H](Oc4cnn(C)c(=O)n4)CC3)CC2)n1` [Compound 10, trans-2-Methyl-5-[4-[4-(4-methylpyrimidin-2-yl)piperazin-1-yl]cyclohexyloxy]-2H-[1,2,4]triazin-3-one]: the “pKi α1” value in experiment [3] stood at 5.95. Further, the Ki in experiment [5] is more than 10 µM; in experiment [2], 0.251 nM. In addition, the ED50 in experiment [4] was 0.08 mg/kg; in experiment [1] (setting [6]), 0.08 mg/kg; in experiment [1] (setting [7]), 0.08 mg/kg; in experiment [1] (setting [8]), 0.02 mg/kg.
For the compound `Cc1cc(C)nc(N2CCN([C@H]3CC[C@H](Oc4cnn(C)c(=O)n4)CC3)CC2)n1` [Compound 11, Trans-2-Methyl-5-[4-[4-(4,6-Dimethyl-Pyrimidin-2-Yl)Piperazin-1-Yl]Cyclohexyloxy]-2H-[1,2,4]triazin-3-one], in experiment [3], the “pKi α1” value stood at 5.72. Also, the values for the Ki in experiment [5] and in experiment [2] were more than 10 µM and 0.251 nM, respectively. The ED50 in experiment [4] was 0.08 mg/kg; in experiment [1] (setting [6]) it was 0.02 mg/kg; in experiment [1] (setting [7]), 0.08 mg/kg; in experiment [1] (setting [8]), 0.02 mg/kg.
Turning to `Cn1ncc(O[C@H]2CC[C@H](N3CCN(c4nccc(Cl)n4)CC3)CC2)nc1=O` [Compound 12, Trans-2-Methyl-5-[4-[4-(4-Chloropyrimidin-2-Yl)Piperazin-1-Yl]Cyclohexyloxy]-2H-[1,2,4]Triazin-3-One], the “pKi α1” value in experiment [3] turned out to be 6.21. In addition, the Ki in experiment [5] is more than 10 µM; in experiment [2], 0.288 nM. In addition, the ED50 in experiment [4] stood at 0.74 mg/kg; in experiment [1] (setting [6]) it was 0.08 mg/kg; in experiment [1] (setting [7]) it was 0.08 mg/kg; in experiment [1] (setting [8]), 0.08 mg/kg.
On to `COc1ccnc(N2CCN([C@H]3CC[C@H](Oc4cnn(C)c(=O)n4)CC3)CC2)n1` [Compound 13, Trans-2-Methyl-5-[4-[4-(4-Methoxypyrimidin-2-Yl)Piperazin-1-yl]Cyclohexyloxy]-2H-[1,2,4]triazin-3-One], for which the “pKi α1” value in experiment [3] came out at 6.65. Further, the Ki is more than 10 µM in experiment [5] and 0.525 nM in experiment [2]. The ED50 in experiment [1] (setting [6]) turned out to be 0.31 mg/kg; in experiment [1] (setting [7]), 0.31 mg/kg; in experiment [1] (setting [8]), 0.08 mg/kg.
With `Cn1ncc(O[C@H]2CC[C@H](N3CCN(c4nccc(C(F)(F)F)n4)CC3)CC2)nc1=O` [Compound 14, Trans-2-Methyl-5-[4-[4-(4-Trifluoro-Methylpyrimidin-2-Yl)Piperazin-1-Yl]Cyclohexyloxy]-2H-[1,2,4]Triazin-3-One], the figures for the ED50 in experiment [1] (setting [6]), in experiment [1] (setting [7]) and in experiment [1] (setting [8]) were 0.31 mg/kg, 0.31 mg/kg and 0.08 mg/kg, respectively.
In the case of `Cn1ncc(O[C@H]2CC[C@H](N3CCN(c4ncc(F)cn4)CC3)CC2)nc1=O` [Compound 15, Trans-2-Methyl-5-[4-[4-(5-Fluoropyrimidin-2-Yl)Piperazin-1-yl]Cyclohexyloxy]-2H-[1,2,4]Triazin-3-One], the ED50 in experiment [1] (setting [6]) is 1.25 mg/kg; in experiment [1] (setting [7]) it was more than 2.5 mg/kg; in experiment [1] (setting [8]) it was 0.31 mg/kg.
`Cn1nc(N[C@H]2CC[C@H](N3CCN(c4cccc(Cl)c4)CC3)CC2)c(=O)n(C)c1=O` [Compound 17, trans-6-{4-[4-(3-Chlorophenyl)piperazin-1-yl]cyclohexylamino}-2,4-dimethyl-2H-[1,2,4]triazine-3,5-dione]: the “pKi α1” value in experiment [3] stood at 7.74. Besides, the Ki is 0.603 µM in experiment [5] and 0.398 nM in experiment [2].
On the same counts, the results for `Cn1nc(N(C)[C@H]2CC[C@H](N3CCN(c4cccc(Cl)c4)CC3)CC2)c(=O)n(C)c1=O` [Compound 19, Trans-6-({4-[4-(3-Chlorophenyl)Piperazin-1-Yl]Cyclohexyl}Methylamino)-2,4-Dimethyl-2H-[1,2,4]Triazine-3,5-Dione] are 7.86, more than 10 µM and 0.195 nM.
As to `O=C(NCCN1CCN(c2cccc3c2OC[C@H](CO)O3)CC1)c1ccc(F)cc1` [Flesinoxan, reference compound], the “pKi α1” value in experiment [3] is reported as 6.50. Further, the Ki in experiment [5] is 0.0891 µM; in experiment [2], 1.23 nM. Moreover, the median effective dose (ED50) came to 1.25 mg/kg in experiment [4], 1.25 mg/kg in experiment [1] (setting [6]), 5 mg/kg in experiment [1] (setting [7]) and 1.25 mg/kg in experiment [1] (setting [8]).
